Measured values published in the supplement of paper PMC7661543.
± gives the standard deviation of the averaged measurements.

Columns and labels:
Test in all cases: relative cell number vs DMSO control (72 h) (% of DMSO); higher = less growth inhibition (more cells)
Conditions in all cases: sgRNA knockout: sgNT
MDA-MB-231 = tested on: MDA-MB-231
Method: (§1)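 QMAP-Seq: a pool of 5 breast cancer cell lines (ZR-75-1, SKBR3, HCC-38, MDA-MB-231, BT-20), each carrying 12 doxycycline-inducible Cas9 sgRNA perturbations (11 knockouts plus non-targeting sgNT), was treated with compounds for 72 h at four 10-fold doses (10 nM-10 uM or 1 nM-1 uM range). Barcodes were amplified and sequenced, and cell number was interpolated from 293T spike-in standard curves. The result is expressed as % of the median of DMSO wells. Two biological replicates.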

BT-20 = tested on: BT-20
Method: as §1

ZR-75-1 = tested on: ZR-75-1
Method: as §1

SKBR3 = tested on: SKBR3
Method: as §1

HCC-38 = tested on: HCC-38
Method: as §1

Structure (SMILES) | relative cell number (MDA-MB-231; 10 nM) | relative cell number (MDA-MB-231; 100 nM) | relative cell number (MDA-MB-231; 1000 nM) | relative cell number (MDA-MB-231; 10000 nM) | relative cell number (BT-20; 10 nM) | relative cell number (BT-20; 100 nM) | relative cell number (BT-20; 1000 nM) | relative cell number (BT-20; 10000 nM) | relative cell number (ZR-75-1; 10 nM) | relative cell number (ZR-75-1; 100 nM) | relative cell number (ZR-75-1; 1000 nM) | relative cell number (ZR-75-1; 10000 nM) | relative cell number (SKBR3; 10 nM) | relative cell number (SKBR3; 100 nM) | relative cell number (SKBR3; 1000 nM) | relative cell number (SKBR3; 10000 nM) | relative cell number (HCC-38; 10 nM) | relative cell number (HCC-38; 100 nM) | relative cell number (HCC-38; 1000 nM) | relative cell number (HCC-38; 10000 nM)
C=CCc1cccc(/C=N/NC(=O)CN2CCN(Cc3ccccc3)CC2)c1O [PAC1] | 104 ± 32 | 134.14 ± 0.028 | 109 ± 32 | 31.7 ± 4.5 | 92 ± 13 | 84.1 ± 14 | 74.6 ± 4.9 | 45.7 ± 18 | 99.5 ± 9.9 | 46.5 ± 24 | 89.6 ± 8.7 | 12.5 ± 5.5 | 68 ± 7 | 88.5 ± 14 | 68 ± 27 | 32.5 ± 11 | 104 ± 7.8 | 103 ± 7 | 90 ± 11 | 33.9 ± 2.5
Oc1cccc(-c2nc(N3CCOCC3)c3oc4ncccc4c3n2)c1 [PI103] | 143 ± 15 | 126 ± 41 | 118 ± 15 | 37.3 ± 11 | 120 ± 44 | 124 ± 37 | 68.7 ± 11 | 49.7 ± 11 | 121 ± 13 | 129 ± 16 | 58 ± 21 | 18.9 ± 2.2 | 145 ± 47 | 134 ± 2.6 | 62.6 ± 31 | 33.1 ± 2.4 | 118 ± 1.5 | 111 ± 1.1 | 85.3 ± 4.5 | 31.4 ± 2.4
CC(=O)Nc1nc(C)c(-c2ccc(Cl)c(S(=O)(=O)NCCO)c2)s1 [PIK93] | 84.5 ± 40 | 98.2 ± 31 | 88.6 ± 11 | 37.5 ± 1.5 | 106 ± 8.5 | 104 ± 2.3 | 98.71 ± 0.17 | 74 ± 3.9 | 128 ± 19 | 99.2 ± 33 | 61.1 ± 14 | 63.8 ± 24 | 112 ± 59 | 66.5 ± 30 | 94.4 ± 41 | 51.9 ± 25 | 115 ± 21 | 118 ± 22 | 80.4 ± 7.5 | 62.7 ± 7.3
CCCS(=O)(=O)Nc1ccc(F)c(C(=O)c2c[nH]c3ncc(Cl)cc23)c1F [PLX4720] | 129.8 ± 0.69 | 136 ± 62 | 70.5 ± 9.8 | 98 ± 3.6 | 104 ± 12 | 75.4 ± 11 | 98.4 ± 7.7 | 121 ± 32 | 138 ± 42 | 96.7 ± 15 | 123 ± 22 | 173 ± 42 | 109 ± 24 | 105 ± 22 | 93.3 ± 14 | 94.8 ± 13 | 103 ± 13 | 109 ± 15 | 110 ± 17 | 98.3 ± 14
CCC(C)SSc1ncc[nH]1 (stereo not given) [PX12] | 104 ± 30 | 128 ± 20 | 99.5 ± 25 | 54.6 ± 0.63 | 116 ± 7.8 | 132 ± 1.4 | 100 ± 4.2 | 99.6 ± 31 | 116 ± 19 | 102 ± 48 | 69.5 ± 9.5 | 54.7 ± 25 | 95.4 ± 14 | 95.5 ± 65 | 88.8 ± 31 | 57.7 ± 24 | 113 ± 8.1 | 101 ± 15 | 93.6 ± 8.6 | 84.9 ± 8.4
